According to US20050148523A1, “Method of treating HIV infection in atazanavir-resistant patients using a combination of atazanavir and another protease inhibitor” (priority 2003, published 2005):

Legend:
[1] = system: HIV-1 in treatment naive patients; test: Clinical study AI424-034, virological outcomes and resistance; format: in vivo, human; conditions: study 034
Text: (§1) Study Population. Viral samples (baseline and on-treatment, where available) were obtained from patients who experienced virologic failure while enrolled in studies AI424-007/041 [12] (ATV+d4T and ddI), AI424-008/044 [13, 14] (ATV+d4T and 3TC) and AI424-034 [9] (ATV or EFV in combination with ZDV and 3TC). […] In general, virologic failure specimens were selected for further resistance evaluation only if they contained >1,000 copies/mL HIV-1 RNA and there was no indication that the specimen came from a patient at a time of transient non-adherence to study drug(s). […] For non-responders, samples from week 16 (or 24) were tested. Drug adherence was determined from pill counts of returned study medications at each scheduled visit.
(§2) ATV resistance was defined as ≧2-fold decrease in ATV susceptibility from baseline, a Fold Change (FC) of ≧2.5 (relative to the Nl4-3 reference strain), or evidence of an isoleucine (Ile) to leucine (Leu) change at amino acid residue 50 (I50L). Resistance levels for NFV and EFV were also defined as a FC reaching 2.5.

[2] = system: HIV-1 in treatment naive patients; test: Clinical study AI424-008/044, virological outcomes and resistance; format: in vivo, human; conditions: study 008/044
Text: as §1, §2

[3] = system: clinical isolates containing an I50L substitution (and their baseline isolates); test: PhenoSense phenotypic susceptibility of clinical isolates from ATV-treated patients who developed I50L; format: cell-based, HIV-1
Text: as §1
(§3) Drug Susceptibility Assays. Clinical isolates were subjected to phenotypic (PhenoSense™) and genotypic (GeneSeq™) analysis by Virologic, Inc. as described elsewhere.

[4] = system: HIV-1 in treatment naive patients; test: Clinical study AI424-007/041, virological outcomes and resistance; format: in vivo, human; conditions: study 007/041
Text: as §1, §2

[5] = system: clinical isolates containing a D30N substitution; test: PhenoSense phenotypic susceptibility of clinical isolates containing D30N; format: cell-based, HIV-1; conditions: 75 D30N containing isolates, FIG. 3
Procedure: as §3
Comparative Studies of I50L and D30N Containing Viruses. […] Comparative studies were performed on the 18 phenotyped viruses containing an I50L and 75 clinical isolates containing a D30N substitution without evidence of cross-resistance (FC≧2.5) to other PIs.

[6] = system: recombinant HIV-1 viruses (NL4-3, RF, LAI) in MT-2 cells; test: MT-2 cell susceptibility assay of recombinant viruses; format: cell-based; conditions: all three viral strains, I50L or I50L/A71V introduced by site-directed mutagenesis
Procedure: Cells and Viruses. MT-2 cells, HIV-1 RF, HIV1-LAI, and the HIV-1 NL4-3 proviral clones were obtained through the AIDS Research and Reference Reagent Program, National Institutes of Health. MT-2 cells were cultured in RPMI 1640 medium supplemented with 10% fetal bovine serum, 2 mM L-glutamine, and 10 mM Hepes buffer. HIV-1 viruses were generated by transient transfection of the proviral DNA into Human Embryonic Kidney 293 cells using Lipofectamine reagents (Gibco BRL). The viruses were harvested 72 hr post-transfection, amplified in MT-2 cells, and titered in the same cells using a virus yield assay.
Recombinant HIV-1 Variants and Chimeric NL4-3 Proviral Clones. HIV-1 strains with defined substitutions in the protease gene were generated by QuikChange® site-directed mutagenesis as recommended by the manufacturer (Stratagene). Recombinant NL4-3 and LAI proviral clones containing the wild-type and mutant protease genes from RF and clinical isolates were constructed by replacing the SseI/ApaI fragment of pNL4-3 with the appropriate SseI/ApaI protease fragments.
Recombinant viruses (generated separately from those made for PhenoSense assays) were tested in an MT-2 cell susceptibility assay at Bristol Myers Squibb. MT-2 cells were infected with recombinant viruses at a multiplicity of infection (MOI) of 0.005 50% tissue culture infective doses (TCID50)/cell followed by incubation in the presence or absence of serially diluted protease inhibitors for 4 to 7 days. Virus yields were quantified using a RT assay as previously described. The results from at least four independent experiments were used to calculate the EC50.

Structure (SMILES) | Virologic Failures (%) [1] | Virologic Failures, number [1] | Virologic Failures (%) [2] | Virologic Failures, number [2] | Susceptibility, Fold Change in EC50 relative to reference strain ([3]; Subject 076, Week 80) | Susceptibility, Fold Change in EC50 relative to reference strain ([3]; Subject 076, Week 92) | Susceptibility, Fold Change in EC50 relative to reference strain ([3]; Subject 100, Week 1.7) | Susceptibility, Fold Change in EC50 relative to reference strain ([3]; Subject 169, Week 0.1) | Susceptibility, Fold Change in EC50 relative to reference strain ([3]; Subject 169, Week 90) | Susceptibility, Fold Change in EC50 relative to reference strain ([3]; Subject 169, Week 102) | Subceptibility, Fold Change in EC50 relative to reference strain ([3]; Subject 169, Week 114) | Susceptibility, Fold Change in EC50 relative to reference strain ([3]; Subject 362, Week 0.1) | Susceptibility, Fold Change in EC50 relative to reference strain ([3]; Subject 362, Week 108) | percentage of baseline isolates exhibiting a FC≦0.4 ([3]; baseline isolates) | median increase in susceptibility from baseline ([3]; on emergence of I50L, n=4 to 15) | percentage of I50L isolates with susceptibility (FC) 0.4-fold or lower ([3]; relative to the reference strain) | Virologic Failures (%) [4] | Virologic Failures, number [4] | median FC [5] | change in susceptibility [6]
O=C1Nc2ccc(Cl)cc2[C@@](C#CC2CC2)(C(F)(F)F)O1 [EFV, efavirenz] | 17% | 69 |  |  |  |  |  |  |  |  |  |  |  |  |  |  |  |  |  | 
Cc1c(O)cccc1C(=O)N[C@@H](CSc1ccccc1)[C@H](O)CN1C[C@H]2CCCC[C@H]2C[C@H]1C(=O)NC(C)(C)C [NFV, nelfinavir] |  |  | 30% | 27 | 0.4 Fold Change | 0.6 Fold Change | 2.1 Fold Change | 1.0 Fold Change | 0.5 Fold Change | 0.5 Fold Change | 0.7 Fold Change | 2.3 Fold Change | 1.1 Fold Change | 0% | 1.6 fold | 33% | 23% | 18 | resistance | enhanced susceptibility
